Measurements from US20240294551A1 (AMGEN INC., priority 2022, published 2024).

How the values were obtained:
[1] = target: GDP-bound KRAS protein (aa 1-169), containing both G12D and C118A amino acid substitutions (Homo sapiens (Human), UniProt P01116, C118A/G12D); experiment: KRAS G12D Coupled Nucleotide Exchange Assay; assay type: biochemical; conditions: read-out: KRAS G12D Coupled Exchange IC50
[2] = tested on: Phosphorylation of ERK1/2 in AsPC-1 cells; experiment: Phospho-ERK1/2 MSD Assay; assay type: cell-based, human; conditions: Homo sapiens, ASPC1, 2 h, read-out: 2 h p-ERK (AsPC-1 cells), IC50
Experimental: AsPC-1 (ATCC® CRL-1682™) cells were cultured in RPMI 1640 Medium (ThermoFisher Scientific 11875093) containing 10% fetal bovine serum (ThermoFisher Scientific 16000044) and 1× penicillin-streptomycin-glutamine (ThermoFisher Scientific 10378016). Sixteen hours prior to compound treatment, AsPC-1 cells were seeded in 96-well cell culture plates at a density of 25,000 cells/well and incubated at 37° C., 5% CO2. A compound dose-response titration was diluted in growth media, added to appropriate wells of a cell culture plate, and then incubated at 37° C., 5% CO2 for 2 hours. Following compound treatment, cells were washed with ice-cold Dulbecco's phosphate-buffered saline, no Ca^2+ or Mg^2+ (ThermoFisher Scientific 14190144), and then lysed in RIPA buffer (50 mM Tris-HCl pH 7.5, 1% Igepal, 0.5% sodium deoxycholate, 150 mM NaCl, and 0.5% sodium dodecyl sulfate) containing protease inhibitors (Roche 4693132001) and phosphatase inhibitors (Roche 4906837001). Phosphorylation of ERK1/2 in compound-treated lysates was assayed using Phospho-ERK1/2 Whole Cell Lysate kits (Meso Scale Discovery K151DWD) according to the manufacturer's protocol. Assay plates were read on a Meso Scale Discovery Sector Imager 6000, and data were analyzed using a 4-parameter logistic model to calculate IC50 values.

[3] = target: His-tagged KRAS G12D protein (Homo sapiens (Human), UniProt P01116, G12D); experiment: KRAS G12D TR-FRET Assay; assay type: binding; conditions: read-out: KRAS G12D Binding IC50
His-tagged KRAS G12D protein, sequence (P01116 other isoform, or with tags, fused parts or gaps G12D): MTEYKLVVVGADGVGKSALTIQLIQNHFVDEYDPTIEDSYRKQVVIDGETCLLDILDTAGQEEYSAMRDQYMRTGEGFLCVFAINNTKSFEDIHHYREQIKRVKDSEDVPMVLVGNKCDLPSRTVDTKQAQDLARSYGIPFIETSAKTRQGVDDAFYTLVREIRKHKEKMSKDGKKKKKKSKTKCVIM
Procedure, shortened: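 Each incubation ran at room temperature: enzyme with compound for 30 minutes, peptide for one hour, and detection reagents (0.4 nM europium anti-6×His, 5 nM streptavidin-d2) for one hour more. Protein and peptide stocks were each diluted to 20 nM before addition.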

GDP-bound KRAS protein (aa 1-169), containing both G12D and C118A amino acid substitutions, sequence (P01116 other isoform, or with tags, fused parts or gaps G12D/C118A): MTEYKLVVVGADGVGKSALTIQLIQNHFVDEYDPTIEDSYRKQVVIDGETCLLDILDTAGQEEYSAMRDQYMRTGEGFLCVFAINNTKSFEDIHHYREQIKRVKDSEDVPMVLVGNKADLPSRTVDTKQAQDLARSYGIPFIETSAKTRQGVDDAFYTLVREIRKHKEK

Row | Compound | IC50 [1] [nM] | IC50 [2] [nM] | IC50 [3] [nM]
1 | O=C1OCCc2c(Cl)cc3[nH]ncc3c2-c2ncc3c(nc(OC[C@@]45CCCN4C[C@H](F)C5)nc3c2F)N2CCC[C@@]3(C[C@H](CO3)O1)C2 [Example 314, (1R,4R)-11-chloro-33-fluoro-25-(((2R,7aS)-2-fluorotetrahydro-1H-pyrrolo[1,2-a]pyrrol-7a(5H)-yl)methoxy)-2,5,7-trioxa-14,15,20,24,26,28-hexaazaheptacyclo[26.3.1.1~1,4~.1~19,23~.0~10,18~.0~13,17~.0~22,27~]tetratriaconta-10,12,15,17,19(33),20,22,24,26-nonaen-6-one] |  | 590 | 
2 | CN1C(=O)CCCCc2c(Cl)cc3[nH]ncc3c2-c2ncc3c(nc(OC[C@@]45CCCN4C[C@H](F)C5)nc3c2F)N2CCOCC1C2 (mixture of isomers) [Example 64] | 81 |  | 98
3 | Cc1c2ncc3c(nc(OCC45CCC(CC4)O5)nc13)N1CCC[C@](C)(C1)NC(=O)CCCc1c(F)ccc3cc(O)cc-2c13 [Example 23, (15R)-22-Fluoro-27-hydroxy-15,31-dimethyl-8-((1r,4r)-7-oxabicyclo[2.2.1]heptan-1-ylmethoxy)-3,7,9,11,16-pentaazahexacyclo[19.7.1.1˜2,6˜.1˜11,15˜.0˜5,10˜.0˜25,29˜]hentriaconta-1(28),2(31),3,5,7,9,21,23,25(29),26-decaen-17-one] | 111 |  | 160
4 | C[C@]12CCCCN(C1)c1nc(OC[C@@]34CCCN3C[C@H](F)C4)nc3c(F)c(ncc13)-c1c(c(Cl)cc3[nH]ncc13)CCCCC(=O)N2 [Example 165, (26S)-18-chloro-32-fluoro-4-(((2R,7aS)-2-fluorotetrahydro-1H-pyrrolo[1,2-a]pyrrol-7a(5H)-yl)methoxy)-26-methyl-1,3,5,9,14,15,25-heptaazahexacyclo[24.4.1.1~6,10~.0~2,7~.0~11,19~.0~12,16~]dotriaconta-2,4,6,8,10(32),11,13,16,18-nonaen-24-one] | 4430 |  | 12700
5 | Fc1c2ncc3c(nc(OC[C@@]45CCCN4C[C@H](F)C5)nc13)N1CCO[C@@H](COCCOCc3c(Cl)cc4[nH]ncc4c3-2)C1 [Example 152, (17R)-9-chloro-30-fluoro-24-(((2R,7aS)-2-fluorotetrahydro-1H-pyrrolo[1,2-a]pyrrol-7a(5H)-yl)methoxy)-12,15,18-trioxa-5,6,21,23,25,29 hexaazahexacyclo[24.3.1.1~17,21~.0~2,10~.0~3,7~.0~22,27~]hentriaconta-1(30),2,4,7,9,22,24,26,28-nonaene] | 56 |  | 71
6 | Cc1cc2[nH]ncc2c2c1CCCOC(=O)N1CC[C@@H]3CCN(C[C@@H]31)c1nc(OC[C@@]34CCCN3C[C@H](F)C4)nc3c(F)c-2ncc13 (mixture of isomers) [Example 75, (28S,32R)-33-fluoro-4-(((2R,7aS)-2-fluorotetrahydro-1H-pyrrolo[1,2-a]pyrrol-7a(5H)-yl)methoxy)-18-methyl-23-oxa-1,3,5,9,14,15,25-heptaazaheptacyclo[23.5.2.1~6,10~.0~2,7~.0~11,19~.0~12,16~.0~28,32~]tritriaconta-2,4,6,8,10(33),11,13,16,18-nonaen-24-one] |  | 213 | 
7 | CN1C(=O)OCCCc2c(Cl)cc3[nH]ncc3c2-c2ncc3c(nc(OC[C@@]45CCCN4C[C@H](F)C5)nc3c2F)N2C[C@H](O)C[C@H]1C2 [Example 287, (17S,19R)-9-chloro-30-fluoro-24-(((2R,7aS)-2-fluorotetrahydro-1H-pyrrolo[1,2-a]pyrrol-7a(5H)-yl)methoxy)-19-hydroxy-16-methyl-14-oxa-5,6,16,21,23,25,29-heptaazahexacyclo[24.3.1.1~17,21~.0~2,10~.0~3,7~.0~22,27~]hentriaconta-1(30),2,4,7,9,22,24,26,28-nonaen-15-one] | 376 |  | 1230
8 | C[C@]12CCCN(C1)c1nc(OC[C@@]34CCCN3C[C@H](F)C4)nc3c(F)c(ncc13)-c1cccc3ccc(F)c(c13)CCOC(=O)N2 [Example 78, (15S)-22,31-difluoro-8-(((2R,7aS)-2-fluorotetrahydro-1H-pyrrolo[1,2-a]pyrrol-7a(5H)-yl)methoxy)-15-methyl-18-oxa-3,7,9,11,16-pentaazahexacyclo[19.7.1.1~2,6~.1~11,15~.0~5,10~.0~25,29~]hentriaconta-1(29),2(31),3,5,7,9,21,23,25,27-decaen-17-one] | 2100 |  | 3810
9 | Cc1cc2[nH]ncc2c2c1CC/C=C\CO[C@@H]1CCCN(C1)c1nc(OC[C@@]34CCCN3C[C@H](F)C4)nc3c(F)c-2ncc13 [Example 133] | 240 |  | 241
10 | Cc1cc2[nH]ncc2c2c1CCCCO[C@H](C)[C@H]1CN(CCO1)c1nc(OC[C@@]34CCCN3C[C@H](F)C4)nc3c(F)c-2ncc13 [Example 241, (16R,17R)-30-fluoro-24-(((2R,7aS)-2-fluorotetrahydro-1H-pyrrolo[1,2-a]pyrrol-7a(5H)-yl)methoxy)-9,16-dimethyl-15,18-dioxa-5,6,21,23,25,29-hexaazahexacyclo[24.3.1.1~17,21~.0~2,10~.0~3,7~.0~22,27~]hentriaconta-1(30),2,4,7,9,22,24,26,28-nonaene] | 1410 |  | 1290
11 | Cc1cc2[nH]ncc2c2c1CCCCO[C@@H](C)[C@H]1CN(CCO1)c1nc(OC[C@@]34CCCN3C[C@H](F)C4)nc3c(F)c-2ncc13 [Example 242, (16S,17R)-30-fluoro-24-(((2R,7aS)-2-fluorotetrahydro-1H-pyrrolo[1,2-a]pyrrol-7a(5H)-yl)methoxy)-9,16-dimethyl-15,18-dioxa-5,6,21,23,25,29-hexaazahexacyclo[24.3.1.1~17,21~.0~2,10~.0~3,7~.0~22,27~]hentriaconta-1(30),2,4,7,9,22,24,26,28-nonaene] | 1050 |  | 1140
12 | Cc1cc2[nH]ncc2c2c1CCCCO[C@@H](C)[C@@H]1CN(CCO1)c1nc(OC[C@@]34CCCN3C[C@H](F)C4)nc3c(F)c-2ncc13 [Example 244, (16S,17S)-30-fluoro-24-(((2R,7aS)-2-fluorotetrahydro-1H-pyrrolo[1,2-a]pyrrol-7a(5H)-yl)methoxy)-9,16-dimethyl-15,18-dioxa-5,6,21,23,25,29-hexaazahexacyclo[24.3.1.1~17,21~.0~2,10~.0~3,7~.0~22,27~]hentriaconta-1(30),2,4,7,9,22,24,26,28-nonaene] | 30 |  | 27

Other lines, results leading:

Row | IC50 [1] [nM] | IC50 [2] [nM] | IC50 [3] [nM] | Compound
13 | 8 | 171 | 17 | C[C@@H](Oc1nc2c3cnc(c(F)c3n1)-c1c(c(Cl)cc3[nH]ncc13)CCCOC(=O)O[C@@H]1COCCN2C1)[C@@H]1CCCN1C [Example 203, (26S)-18-chloro-32-fluoro-4-((1R)-1-((2S)-1-methyl-2-pyrrolidinyl)ethoxy)-23,25,28-trioxa-1,3,5,9,14,15-hexaazahexacyclo[24.4.1.1~6,10~.0~2,7~.0~11,19~.0~12,16~]dotriaconta-2,4,6,8,10(32),11,13,16,18-nonaen-24-one]
14 | 431 |  | 435 | Cc1nc2c3cnc(c(F)c3n1)-c1c(c(C)cc3[nH]ncc13)CCCOC(=O)O[C@@H]1COCCN2C1 [Example 210, (26S)-32-fluoro-4,18-dimethyl-23,25,28-trioxa-1,3,5,9,14,15-hexaazahexacyclo[24.4.1.1~6,10~.0~2,7~.0~11,19~.0~12,16~]dotriaconta-2,4,6,8,10(32),11,13,16,18-nonaen-24-one]
15 | 35 |  | 50 | O=C1OCCc2c(Cl)cc3[nH]ncc3c2-c2ncc3c(nc(OC[C@@]45CCCN4C[C@H](F)C5)nc3c2F)N2CCOC[C@]3(C2)C[C@@H](C3)O1 [Example 317, (1S,3S)-10-chloro-33-fluoro-24-(((2R,7aS)-2-fluorotetrahydro-1H-pyrrolo[1,2-a]pyrrol-7a(5H)-yl)methoxy)-4,6,30-trioxa-13,14,19,23,25,27-hexaazaheptacyclo[25.4.1.1~1,3~.1~18,22~.0~9,17~.0~12,16~.0~21,26~]tetratriaconta-9,11,14,16,18(33),19,21,23,25-nonaen-5-one]
16 | 42 |  | 61 | O=C1OCCCCc2c(Cl)cc3[nH]ncc3c2-c2ncc3c(nc(OC[C@@]45CCCN4C[C@H](F)C5)nc3c2F)N2CCOC[C@H](C2)O1 [Example 324, (27S)-18-chloro-33-fluoro-4-(((2R,7aS)-2-fluorotetrahydro-1H-pyrrolo[1,2-a]pyrrol-7a(5H)-yl)methoxy)-24,26,29-trioxa-1,3,5,9,14,15-hexaazahexacyclo[25.4.1.1~6,10~.0~2,7~.0~11,19~.0~12,16~]tritriaconta-2,4,6,8,10(33),11,13,16,18-nonaen-25-one]
17 | 65 |  | 99 | Cc1cc2[nH]ncc2c2c1CCOC(=O)O[C@H]1C[C@@]3(CCCN(C3)c3nc(OC[C@@H]4CCCN4C)nc4c(F)c-2ncc34)C1 (single isomer, unassigned) [Example 325]
